What was measured:
[1] = Bovine Brain Endothelial Cells (BBMEC) transport study, in vitro BBB permeability; assay type: in vitro ADME; conditions: BBMEC monolayer, mean ± standard deviation
Description: The compounds of this invention are capable of crossing the blood-brain barrier (BBB) as shown by their ability to penetrate across a membrane of a monolayer of bovine brain microvessel endothelial cells, an in vitro model for BBB permeability.
The procedure was performed according to: Kenneth L. Audus et al., Brain Microvessel Endothelial Cell Culture System (Chapter 13) pp 239-258. In Models for Assessing Drug Absorption and Metabolism, Ronald T. Borchardt et al. eds., Plenum Press, New York 1996.

human 5-HT2A = target: T1, human 5-HT2A (Homo sapiens, UniProt P28223); test: Receptor binding assay, inhibition of [3H]-ligand binding to human 5-HT2A
T1 construct: expressed in transfected cells; membranes prepared
T1 sequence (P28223 whole entry): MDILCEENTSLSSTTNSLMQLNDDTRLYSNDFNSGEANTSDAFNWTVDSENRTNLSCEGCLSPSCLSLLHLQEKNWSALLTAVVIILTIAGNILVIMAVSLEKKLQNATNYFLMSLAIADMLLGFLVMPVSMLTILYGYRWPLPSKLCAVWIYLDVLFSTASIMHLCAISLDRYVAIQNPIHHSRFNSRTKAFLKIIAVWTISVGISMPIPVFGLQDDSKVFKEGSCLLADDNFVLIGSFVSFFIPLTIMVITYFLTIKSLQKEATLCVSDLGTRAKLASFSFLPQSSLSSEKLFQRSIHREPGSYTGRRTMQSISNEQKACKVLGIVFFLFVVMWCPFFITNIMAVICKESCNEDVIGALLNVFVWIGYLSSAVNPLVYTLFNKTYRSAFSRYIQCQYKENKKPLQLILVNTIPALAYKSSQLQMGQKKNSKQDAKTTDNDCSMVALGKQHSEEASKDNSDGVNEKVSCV
Description: Cells stably expressing the human homologs of the receptors (dopamine D2L, serotonin 5HT2A and 5HT2C, α1A adrenergic; cloned and expressed at Hoechst Marion Roussel; Grandy et al., 1989: Monsma et al., 1993; Schwinn et al., 1995) were grown: cell membranes were prepared, and kept frozen until used (Kongsamut et al., 1996). The relevance of these binding sites has been extensively discussed in the literature (see for example: Carlsson & Carlsson. 1990; Creese et al., 1976; Gorman & Vargas, 1995; Meltzer et al., 1989). All binding parameters were optimized at Hoechst Marion Roussel; ligand KdS were determined using both saturation analysis (Scatchard) as well as kinetic analysis (association and dissociation rates). Each batch of membrane was validated by checking the ligand Kd, and rank order of potency of selected standard compounds. […]
Membranes were rapidly thawed and diluted to an appropriate concentration (between 20 - 150 µg protein/assay point depending on receptor expression level) in Tris buffer and homogenized. […] Microscint scintillation cocktail (40 µl) were added and the filter plates were counted in a Packard Top Count scintillation counter. Data were analyzed to determine Ki's for compounds of interest (Prusoff & Cheng, […]).Table: Receptor Binding Parameters. […]

human 5-HT2C = target: T2, human 5-HT2C (Homo sapiens, UniProt P28335); test: Receptor binding assay, inhibition of [3H]-ligand binding to human 5-HT2C; conditions: [3H]mesulergine 2 nM, CHO cell membranes, 37°C, 40 min
T2 construct: expressed in transfected cells; membranes prepared
T2 sequence (P28335 33-458): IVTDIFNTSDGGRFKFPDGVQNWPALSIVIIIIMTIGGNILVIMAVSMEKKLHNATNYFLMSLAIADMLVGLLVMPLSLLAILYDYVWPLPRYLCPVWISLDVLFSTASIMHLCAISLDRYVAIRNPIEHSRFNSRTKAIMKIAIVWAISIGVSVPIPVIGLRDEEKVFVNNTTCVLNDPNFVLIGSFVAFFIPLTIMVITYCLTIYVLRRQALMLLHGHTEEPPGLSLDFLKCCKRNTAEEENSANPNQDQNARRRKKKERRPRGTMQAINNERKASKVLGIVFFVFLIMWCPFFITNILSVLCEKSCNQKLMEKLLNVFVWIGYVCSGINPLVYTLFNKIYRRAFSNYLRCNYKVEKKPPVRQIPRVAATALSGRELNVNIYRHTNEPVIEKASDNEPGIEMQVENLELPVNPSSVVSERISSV
Description: (§1) Cells stably expressing the human homologs of the receptors (dopamine D2L, serotonin 5HT2A and 5HT2C, α1A adrenergic; cloned and expressed at Hoechst Marion Roussel; Grandy et al., 1989: Monsma et al., 1993; Schwinn et al., 1995) were grown: cell membranes were prepared, and kept frozen until used (Kongsamut et al., 1996). […] All binding parameters were optimized at Hoechst Marion Roussel; ligand KdS were determined using both saturation analysis (Scatchard) as well as kinetic analysis (association and dissociation rates). Each batch of membrane was validated by checking the ligand Kd, and rank order of potency of selected standard compounds. Assays for the serotonin 5HT2A and dopamine D2L receptors were conducted at 37°C in a Tris buffer containing salts (50 mM Tris Buffer, pH 7.7; 120 mM NaCl; 5 mM KCI; 2 mM CaCl2; 1 mM MgCl2), while the serotonin 5-HT2C and α1A adrenergic receptor assays used a different buffer without salts (50 mM Tris, 4 mM CaCl2 and 1% ascorbate, pH 7.4). […]
(§2) Membranes were rapidly thawed and diluted to an appropriate concentration (between 20 - 150 µg protein/assay point depending on receptor expression level) in Tris buffer and homogenized. […] Microscint scintillation cocktail (40 µl) were added and the filter plates were counted in a Packard Top Count scintillation counter.

human α1A = target: T3, human α1A (Homo sapiens, UniProt P35348); test: Receptor binding assay, inhibition of [3H]-ligand binding to human α1A; conditions: [3H]prazosin 1 nM, CHO cell membranes, 37°C, 40 min
T3 construct: expressed in transfected cells; membranes prepared
T3 sequence (P35348 1-466): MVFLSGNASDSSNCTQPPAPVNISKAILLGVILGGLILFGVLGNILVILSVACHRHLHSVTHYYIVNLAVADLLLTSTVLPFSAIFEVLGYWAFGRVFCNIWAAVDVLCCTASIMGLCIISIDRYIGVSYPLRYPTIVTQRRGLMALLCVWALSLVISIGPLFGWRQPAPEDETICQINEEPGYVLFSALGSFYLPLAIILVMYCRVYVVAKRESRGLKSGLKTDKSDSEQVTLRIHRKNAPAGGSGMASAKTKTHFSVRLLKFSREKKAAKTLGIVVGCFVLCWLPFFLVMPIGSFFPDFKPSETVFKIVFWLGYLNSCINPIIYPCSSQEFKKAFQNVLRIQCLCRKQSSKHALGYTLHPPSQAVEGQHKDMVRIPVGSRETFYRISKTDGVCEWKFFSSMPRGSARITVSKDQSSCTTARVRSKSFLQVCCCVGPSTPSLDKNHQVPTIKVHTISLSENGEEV
Description: as §1, §2

human D2L = target: T4, human D2L (Homo sapiens, UniProt P14416); test: Receptor binding assay, inhibition of [3H]-ligand binding to human D2L; conditions: [3H]N-methyl spiperone 1 nM, CHO cell membranes, 37°C, 60 min; read-out: D2(Ki µM)
T4 construct: expressed in transfected cells; membranes prepared
T4 sequence (P14416 whole entry): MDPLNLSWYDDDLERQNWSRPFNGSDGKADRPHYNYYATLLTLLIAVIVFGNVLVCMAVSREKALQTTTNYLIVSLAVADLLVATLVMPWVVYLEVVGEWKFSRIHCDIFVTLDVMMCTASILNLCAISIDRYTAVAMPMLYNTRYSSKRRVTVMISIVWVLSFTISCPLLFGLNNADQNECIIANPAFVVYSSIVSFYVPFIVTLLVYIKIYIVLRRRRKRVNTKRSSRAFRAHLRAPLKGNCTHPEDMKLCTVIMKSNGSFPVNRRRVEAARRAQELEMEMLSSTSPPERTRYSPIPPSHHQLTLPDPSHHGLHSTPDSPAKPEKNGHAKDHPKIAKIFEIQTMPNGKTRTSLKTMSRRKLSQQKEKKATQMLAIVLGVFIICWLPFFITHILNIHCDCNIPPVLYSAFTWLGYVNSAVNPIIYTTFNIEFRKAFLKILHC
Description: as §1, §2

| Structure (SMILES) | Papp at 5.4 µM [1] [×10⁻⁶ cm/s] | Papp at 16 µM [1] [×10⁻⁶ cm/s] | Kd (human 5-HT2A; radioligand Kd at human 5-HT2A, BHK, saturation (Scatchard) and kinetic analysis) [nM] | Ki (human 5-HT2C) [µM] | Ki (human α1A) [µM] | Ki (human 5-HT2A; [3H]N-methyl spiperone 1.5 nM, BHK cell membranes, 37°C, 40 min) [µM] | Ki (human D2L) [µM] |
| --- | --- | --- | --- | --- | --- | --- | --- |
| OC[C@@H](O)[C@@H](O)[C@H](O)[C@H](O)CO [Mannitol, reference compound] | 27.6 ± 2.3 | 27.6 ± 2.3 |  |  |  |  |  |
| CN1CN(c2ccccc2)C2(CCN(CCCC(=O)c3ccc(F)cc3)CC2)C1=O [[^3H]N-methyl spiperone, reference compound] |  |  | 0.92 |  |  |  |  |
| COc1c(OS(=O)(=O)O)cccc1C(O)C1CCN(CCc2ccc(F)cc2)CC1 (single isomer, unassigned) [Example 1H, Sulfuric acid mono-(+)-(3-(-{1-[2-(4-fluoro-phenyl)-ethyl]-piperidin-d-yl}-hydroxy-methyl)-2-methoxy-phenyl] ester] | 41.4 ± 16.4 | 52.5 ± 9.5 |  | > 1 | > 1 | 0.16 | > 1 |

— patent EP1202967B1, “SULFURIC ACID MONO-[3-({1-[2-(4-FLUORO-PHENYL)-ETHYL]-PIPERIDIN-4-YL}-HYDROXY-METHYL)-2-METHOXY-PHENYL]ESTER” (AVENTIS PHARMACEUTICALS INC., priority 1999, dated 2001)
